Data published in PMC7600788, “Sequence Permutation Generates Peptides with Different Antimicrobial and Antibiofilm Activities” (Pharmaceuticals, 2020).
No end group written: not given here.

Assays:
Pig RBC = experiment: Hemolytic assay; format: cell-based
Outline: (§1)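 RBCs washed in PBS and used as 2% (v/v) suspension; incubated with peptide 1 h at 37 °C, then centrifuged and haemoglobin release read at 545 nm. Lysis normalised to 2% Triton X-100 (100%) and PBS (0%); HC50 is the peptide concentration giving 50% lysis.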

human red blood cells = experiment: Hemolytic assay; format: cell-based; details: red cells of human
Outline: as §1

chicken red blood cells = experiment: Hemolytic assay; format: cell-based
Outline: as §1

E. coli ATCC 25922 = format: cell-based, Escherichia coli; details: ATCC 25922
Outline: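 Broth microdilution with log-phase cultures diluted to OD600~0.001 and two-fold peptide dilutions, incubated overnight at 37 °C and read at 630 nm. MBC taken by plating clear wells at or above MIC. Physiological saline or human serum was present for the whole experiment.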

S. aureus USA300 LAC = experiment: Inhibition of biofilm attachment (XTT); format: cell-based, Staphylococcus aureus; details: concentration series, Figure 6A
Description: Antimicrobial effects of the peptides are different on diverse forms of bacteria. The free and motile forms cultivated in laboratories are the planktonic bacteria onto which the peptides and antibiotics can have direct effects. However, the activity of the microbicides can be reduced to the biofilm forms where bacteria are less exposed and hidden inside the shield. The development of the biofilms starts with the attachment of the individual cells on the substratum followed by biofilm growth and maturation into more solid biomass. We tested the ability of WW295 and WW298 in fighting the biofilms of S. aureus USA300 LAC at the two stages. […] These 96-well commercial plates were pre-treated commercially with tissue culture to enhance cell adhesion.
This experiment was performed to measure the ability of the peptide to inhibit bacterial attachment, the initial step for biofilm formation. In short, an overnight culture of S. aureus USA300 was grown in TSB media to an optical density (600 nm) of ∼1.0. […] Live cells in the biofilms were then quantitated using XTT [2,3-bis(2-methyloxy-4-nitro-5-sulfophenyl)-2H-tertazolium-5-carboxanilide] assay by following the manufacturer’s instructions with modifications. […] Absorbance at 450 nm (only media with XTT containing wells served as the blank) was obtained using a Chromate^TM microtiter plate reader. […]

E. coli K12 = format: cell-based, Escherichia coli; details: K12
Outline: (§2)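 Broth microdilution: log-phase cultures diluted to OD600 ~0.001 were treated with two-fold peptide dilutions and incubated overnight at 37 °C, then read at 630 nm. MBC was the lowest concentration giving no growth when wells at or above MIC were plated.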

E. coli ML35p = experiment: Simultaneous outer and inner membrane permeation (nitrocefin / ONPG); format: cell-based, Escherichia coli; details: 3.1 µM
Description: To confirm the mechanism of action, we also performed membrane permeation using a reporter strain of E. coli ML35p. This strain enabled simultaneous monitoring of membrane permeation of both the inner and outer membranes of Gram-negative bacterium E. coli. Both WW295 and WW298 were included in the experiment. […] This is indicated by the sharp development of absorbance at 490 nm for nitrocefin (panel A) and at 420 nm for ONPG (panel B).
The E. coli ML-35p strain was utilized to probe the permeation of both the outer membrane (OM) and inner membrane (IM). This strain was engineered to have two membrane reporters. Nitrocefin is used for detection of OM permeabilization. Nitrocefin is excluded from the periplasm. […] The chromogenic cleavage product was spectrophotometrically monitored at 490 nm. […] However, permeabilization of the IM helps ONPG to enter cytoplasm and get cleaved by cytoplasmic β-galactosidase into o-nitrophenol, which can be detected spectrophotometrically at 420 nm. […] Absorbances at both 490 and at 420 nm were monitored using FLUOstar Omega (BMG, Labtech, NC, USA) simultaneously. After shaking at 100 rpm, readings were taken every 2 min for a total of 40 min at 37 °C. Data were analyzed using the MARS data analysis software provided by the manufacturer and representative plots were made using the GraphPad Prism 7 software.

S. aureus USA300 = format: cell-based, Staphylococcus aureus; details: USA300
Outline: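 Broth microdilution: log-phase cultures diluted to OD600 ~0.001 received two-fold serial peptide dilutions and were incubated overnight at 37 °C, with growth read at 630 nm. MBC was the lowest concentration giving no growth when clear wells at or above MIC were plated.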

P. aeruginosa PAO1 = format: cell-based, Pseudomonas aeruginosa; details: PAO1
Outline: as §2

For RKIWWWWL [WW295], the “Pig RBC, concentration that caused 50% red blood cell lysis (HC50)” value (Pig RBC) was greater than 100 µM, the “Human RBC, concentration that caused 50% red blood cell lysis (HC50)” value (human red blood cells) was 57 µM and the “Chicken RBC, concentration that caused 50% red blood cell lysis (HC50)” value (chicken red blood cells) was 100 µM. For the same sequence, the “MIC, +150 mM NaCl” value (E. coli ATCC 25922) was 6.2 µM, the “MIC, +10% Human Serum” value (E. coli ATCC 25922) was 12.5 µM and the “MIC, TSB” value (E. coli ATCC 25922) was 3.1 µM. For the same sequence, the “effect on surface adherence of MRSA (in words)” value (S. aureus USA300 LAC) was “did not show any effects”, the “Minimal Inhibitory Concentration (MIC), EC” value (E. coli K12) was 6.2 µM and the “outer and inner membrane permeation (nitrocefin 490 nm, ONPG 420 nm)” value (E. coli ML35p) was “entered both outer and inner membranes”. For the same sequence, the “MBC, USA300” value (S. aureus USA300) was 12.5 µM and the “Minimal Inhibitory Concentration (MIC), PA” value (P. aeruginosa PAO1) was 25 to 50 µM.
